From patent publication US10351547B2, “Somatostatin modulators and uses thereof” (priority 2016, dated 2019) come the findings set out here.

Molecules are shown by their SMILES. pEC50: −log10 of the molar value. A value given as a limit tells only on which side of the number the result lay.

The target in the first experiment is human SSTR2 (Homo sapiens (Human), UniProt P30874). Nature of the experiment: Human SSTR2 intracellular cAMP functional assay for agonists (HTRF). It is filed as cell-based.
Sequence of human SSTR2 (P30874 whole entry): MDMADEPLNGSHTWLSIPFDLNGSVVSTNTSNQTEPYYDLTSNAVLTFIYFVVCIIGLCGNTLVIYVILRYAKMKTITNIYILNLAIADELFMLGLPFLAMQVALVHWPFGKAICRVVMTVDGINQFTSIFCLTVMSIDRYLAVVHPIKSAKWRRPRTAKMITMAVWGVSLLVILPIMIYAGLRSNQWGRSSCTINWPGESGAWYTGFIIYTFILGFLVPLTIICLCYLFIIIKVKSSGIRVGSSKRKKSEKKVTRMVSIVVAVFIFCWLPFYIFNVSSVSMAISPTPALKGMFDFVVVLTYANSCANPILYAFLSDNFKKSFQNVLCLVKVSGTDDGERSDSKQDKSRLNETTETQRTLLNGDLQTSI
Details: not given
The essentials:
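Cells bearing human SSTR2 exposed to compound for 20 minutes at 37 °C; after lysis, cAMP measured by time-resolved fluorescence (HTRF) and converted via a standard curve. EC50 calculated from cAMP versus compound concentration.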
(In TR-FRET formats the signal depends on donor and acceptor labels being close together.)
The term pEC50 denotes the EC50 on a negative log10 scale, so that one unit is a factor of ten. Regarding `N#Cc1cccc(-c2cnc3ncc(-c4cc(F)cc(F)c4)c(N4CCC(N)CC4)c3c2)c1O` [4-1, 3-[5-(4-aminopiperidin-1-yl)-6-(3,5-difluorophenyl)-1,8-naphthyridin-3-yl]-2-hydroxybenzonitrile], the negative-log EC50 (pEC50) is 7.00 to 8.00.

Staying with this experiment, now noted: CHO-K1 cells stably expressing human SSTR2; NKH477-stimulated cAMP; read-out: EC50 (inhibition of cAMP activities via human SST2R).
With `NC1CCN(c2c(-c3cc(F)cc(F)c3)cnc3ccc(-c4c(O)c(Br)cc(F)c4F)cc23)CC1` [2-241, 2-[4-(4-aminopiperidin-1-yl)-3-(3,5-difluorophenyl)quinolin-6-yl]-6-bromo-3,4-difluorophenol], the negative-log EC50 (pEC50) was more than 8.00.
On the same count and under the same terms, with `COCCNc1ncc(C#N)cc1-c1ccc2ncc(-c3cc(C)cc(F)c3)c(N3CCC(N)CC3)c2c1` [2-242, 5-[4-(4-aminopiperidin-1-yl)-3-(3-fluoro-5-methylphenyl)quinolin-6-yl]-6-[(2-methoxyethyl)amino]pyridine-3-carbonitrile] the figure was more than 8.00.
Same read-out and setting: under `Oc1ncccc1-c1ccc2ncc(-c3cc(F)cc(F)c3)c(N3CC[C@H]4NCCO[C@@H]4C3)c2c1` [2-248, 3-{4-[trans-octahydro-1H-pyrido[3,4-b]morpholin-6-yl]-3-(3,5-difluorophenyl)quinolin-6-yl}pyridin-2-ol] stands more than 8.00; under `Cc1ccnc(-c2ccc3ncc(-c4cc(F)cc(F)c4)c(N4CCC(N)CC4)c3c2)c1N` [2-250, 2-[4-(4-aminopiperidin-1-yl)-3-(3,5-difluorophenyl)quinolin-6-yl]-4-methylpyridin-3-amine], more than 8.00.
On the same count and under the same terms, under `N#Cc1cncc(-c2ccc3ncc(-c4cc(F)cc(F)c4)c(N4CC[C@H]5NCCO[C@@H]5C4)c3c2)c1O` [2-254, 5-{4-[trans-octahydro-1H-pyrido[3,4-b]morpholin-6-yl]-3-(3,5-difluorophenyl)quinolin-6-yl}-4-hydroxypyridine-3-carbonitrile] stands 7.00 to 8.00.
Turning to `Cc1ccnc(-c2ccc3ncc(-c4cc(F)cc(F)c4)c(N4CC[C@H]5NCCO[C@@H]5C4)c3c2)c1O` [2-258, 2-{4-[trans-octahydro-1H-pyrido[3,4-b]morpholin-6-yl]-3-(3,5-difluorophenyl)quinolin-6-yl}-4-methylpyridin-3-ol], the pEC50 is more than 8.00.
On the same count and under the same terms, under `Cc1cc(F)cc(-c2cnc3ccc(-c4nccc(C#N)c4N)cc3c2N2CC(C3COCCN3)C2)c1` (stereo not shown) [2-282, 3-amino-2-[3-(3-fluoro-5-methylphenyl)-4-[3-(morpholin-3-yl)azetidin-1-yl]quinolin-6-yl]pyridine-4-carbonitrile] stands more than 8.00; under `Cc1cc(F)cc(-c2cnc3ccc(-c4cc(F)cc(C(N)=O)c4)nc3c2N2CCC(N)CC2)c1` [3-1, 3-[8-(4-aminopiperidin-1-yl)-7-(3-fluoro-5-methylphenyl)-1,5-naphthyridin-2-yl]-5-fluorobenzamide], more than 8.00.
`Cc1cc(F)cc(-c2cnc3ccc(-c4cc(F)cc5[nH]c(=O)[nH]c45)nc3c2N2CCC(N)CC2)c1` [3-3, 4-[8-(4-aminopiperidin-1-yl)-7-(3-fluoro-5-methylphenyl)-1,5-naphthyridin-2-yl]-6-fluoro-2,3-dihydro-1H-1,3-benzodiazol-2-one]: the negative logarithm of the EC50 (pEC50) is more than 8.00.
With `Cc1cc(F)cc(-c2cnc3ccc(-c4ccc5[nH]c(=O)[nH]c5c4)nc3c2N2CCC(N)CC2)c1` [3-4, 5-[8-(4-aminopiperidin-1-yl)-7-(3-fluoro-5-methylphenyl)-1,5-naphthyridin-2-yl]-2,3-dihydro-1H-1,3-benzodiazol-2-one], the negative logarithm of the EC50 (pEC50) was more than 8.00.
Still for that read-out and setting: with `Cc1cc(F)cc(-c2cnc3ccc(-c4cc(F)c5[nH]c(=O)[nH]c5c4)nc3c2N2CCC(N)CC2)c1` [3-5, 6-[8-(4-aminopiperidin-1-yl)-7-(3-fluoro-5-methylphenyl)-1,5-naphthyridin-2-yl]-4-fluoro-2,3-dihydro-1H-1,3-benzodiazol-2-one] the figure was more than 8.00; with `NC1CCN(c2c(-c3cc(F)cc(F)c3)cnc3ccc(-c4cc(F)c5[nH]c(=O)[nH]c5c4)nc23)CC1` [3-9, 6-[8-(4-aminopiperidin-1-yl)-7-(3,5-difluorophenyl)-1,5-naphthyridin-2-yl]-4-fluoro-2,3-dihydro-1H-1,3-benzodiazol-2-one], more than 8.00; with `Cc1cc(F)cc(-c2cnc3ncc(-c4cccc(C#N)c4O)cc3c2N2CCC(N)CC2)c1` [4-2, 3-[5-(4-aminopiperidin-1-yl)-6-(3-fluoro-5-methylphenyl)-1,8-naphthyridin-3-yl]-2-hydroxybenzonitrile], more than 8.00.
On to `Cc1cc(F)cc(-c2cnc3ncc(-c4cc(F)cc(C#N)c4O)cc3c2N2CCC(N)CC2)c1` [4-3, 3-[5-(4-aminopiperidin-1-yl)-6-(3-fluoro-5-methylphenyl)-1,8-naphthyridin-3-yl]-5-fluoro-2-hydroxybenzonitrile], for which the pEC50 is more than 8.00.
For the compound `Cc1cc(Cl)cc(-c2cnc3ncc(-c4cccc(C#N)c4O)cc3c2N2CCC(N)CC2)c1` [4-4, 3-[5-(4-aminopiperidin-1-yl)-6-(3-chloro-5-methylphenyl)-1,8-naphthyridin-3-yl]-2-hydroxybenzonitrile], the negative logarithm of the EC50 (pEC50) is more than 8.00.
